Experiment: Qualitative solubility in water
Type: physicochemical
Conditions: qualitative statement

Row | solubility in water | Substance
1 | freely soluble in water | Cs2[closo-B12(OH)12] [dicesium salt]
2 | sparingly water-soluble | Cs2[closo-B12H12]^2−
3 | not water-soluble | closo-1,12-C2B10H12

More lines, now with the values behind:

Row | Substance | solubility in water
4 | closo-1,12-(CH2OH)2-1,12-C2B10H10 | slightly water-soluble
5 | Cs[closo-1-CB11H12]^− | sparingly water-soluble
